Experimental data as given in PMC3640040, “Partial Agonism of Taurine at Gamma-Containing Native and Recombinant GABAA Receptors” (PLoS ONE, 2013).

Assays:
α2β3γ2 = target: T1, α2β3γ2 (Mus musculus; Homo sapiens, UniProt P22723+P26048+P28472); experiment: two-electrode voltage clamp, Xenopus oocytes; type: cell-based; details: read-out: Taurine / EC50
T1 construct: gene Gabra2; ternary GABA-A receptor, mouse alpha2 + human beta3 + mouse gamma2L; Xenopus oocytes, cRNA ratio 10:1:10; agonist site alpha/beta, zolpidem site alpha/gamma

α2β1δ = target: T2, α2β1δ (Rattus norvegicus; Mus musculus; Homo sapiens, UniProt P15431+P26048); experiment: two-electrode voltage clamp, Xenopus oocytes; type: cell-based; details: read-out: Taurine / EC50
T2 construct: gene Gabra2; ternary GABA-A receptor, mouse alpha2 + rat beta1 + human delta; Xenopus oocytes, cRNA ratio 10:1:10; with Gamma-aminobutyric acid receptor subunit delta

α2β1γ2 = target: T3, α2β1γ2 (Rattus norvegicus; Mus musculus, UniProt P15431+P26048); experiment: two-electrode voltage clamp, Xenopus oocytes; type: cell-based; details: read-out: Taurine / EC50
T3 construct: gene Gabra2; ternary GABA-A receptor, mouse alpha2 + rat beta1 + mouse gamma2L; Xenopus oocytes, cRNA ratio 10:1:10; with Gamma-aminobutyric acid receptor subunit gamma-2

α2β3δ = target: T4, α2β3δ (Mus musculus; Homo sapiens, UniProt P26048+P28472); experiment: two-electrode voltage clamp, Xenopus oocytes; type: cell-based; details: read-out: Taurine / EC50
T4 construct: gene Gabra2; ternary GABA-A receptor, mouse alpha2 + human beta3 + human delta; Xenopus oocytes, cRNA ratio 10:1:10; with Gamma-aminobutyric acid receptor subunit delta
T4 sequence (P26048 29-451): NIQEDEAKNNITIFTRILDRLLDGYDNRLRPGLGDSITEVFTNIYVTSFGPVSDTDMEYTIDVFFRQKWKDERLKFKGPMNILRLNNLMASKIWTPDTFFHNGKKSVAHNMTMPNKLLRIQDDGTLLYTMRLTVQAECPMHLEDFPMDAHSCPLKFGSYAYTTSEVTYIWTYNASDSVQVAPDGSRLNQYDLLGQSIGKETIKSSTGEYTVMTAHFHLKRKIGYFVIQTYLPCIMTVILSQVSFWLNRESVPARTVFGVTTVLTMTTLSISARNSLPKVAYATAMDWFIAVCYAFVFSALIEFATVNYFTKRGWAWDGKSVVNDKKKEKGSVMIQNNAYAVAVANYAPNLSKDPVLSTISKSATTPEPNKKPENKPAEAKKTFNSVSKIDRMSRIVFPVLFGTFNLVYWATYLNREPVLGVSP
T4 sequence (P28472 26-473): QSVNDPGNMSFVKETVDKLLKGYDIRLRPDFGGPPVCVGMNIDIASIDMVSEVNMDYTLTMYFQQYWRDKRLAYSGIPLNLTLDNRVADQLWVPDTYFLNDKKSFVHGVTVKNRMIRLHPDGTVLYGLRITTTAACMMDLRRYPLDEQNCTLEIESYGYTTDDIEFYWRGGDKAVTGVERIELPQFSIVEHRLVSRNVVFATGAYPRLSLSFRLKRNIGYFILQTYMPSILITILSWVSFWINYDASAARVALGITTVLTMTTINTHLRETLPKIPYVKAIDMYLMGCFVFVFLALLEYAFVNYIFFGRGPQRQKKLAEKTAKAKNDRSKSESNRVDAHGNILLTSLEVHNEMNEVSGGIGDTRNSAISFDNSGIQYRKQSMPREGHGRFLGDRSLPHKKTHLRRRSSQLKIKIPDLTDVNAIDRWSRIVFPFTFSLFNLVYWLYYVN
T4 sequence (O14764 25-452 partner): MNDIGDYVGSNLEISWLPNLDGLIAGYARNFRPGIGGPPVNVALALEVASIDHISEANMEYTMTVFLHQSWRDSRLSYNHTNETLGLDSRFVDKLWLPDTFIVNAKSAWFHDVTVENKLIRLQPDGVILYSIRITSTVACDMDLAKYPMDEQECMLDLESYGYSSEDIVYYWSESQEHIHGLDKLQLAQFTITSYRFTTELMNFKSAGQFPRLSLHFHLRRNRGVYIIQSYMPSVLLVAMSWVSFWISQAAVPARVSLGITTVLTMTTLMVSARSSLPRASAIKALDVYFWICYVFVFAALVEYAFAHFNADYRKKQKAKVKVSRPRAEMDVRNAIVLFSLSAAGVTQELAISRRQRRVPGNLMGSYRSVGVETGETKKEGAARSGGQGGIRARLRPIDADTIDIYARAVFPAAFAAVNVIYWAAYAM

α2β1 = target: T5, α2β1 (Mus musculus; Rattus norvegicus, UniProt P15431+P26048); experiment: two-electrode voltage clamp, Xenopus oocytes; type: cell-based; details: read-out: Taurine / EC50
T5 construct: gene Gabra2; binary GABA-A receptor, mouse alpha2 + rat beta1; Xenopus oocytes
From the text: two-electrode voltage clamp, Xenopus oocytes on α2β1

α2β1γ2 (δ74–79) = target: T6, α2β1γ2 (δ74–79) (Mus musculus; Rattus norvegicus, UniProt P15431+P26048); experiment: two-electrode voltage clamp, Xenopus oocytes; type: cell-based; details: read-out: Taurine / EC50
T6 construct: gene Gabra2; mouse alpha2 + rat beta1 + mouse gamma2L with IDIFFA (74-79) replaced by delta motif MTVFLH; printed primers also encode T81S and Y83R, text names 74-79 only; Xenopus oocytes; with Gamma-aminobutyric acid receptor subunit gamma-2
From the text: two-electrode voltage clamp, Xenopus oocytes on α2β1γ2 (δ74–79)

α2β3 = target: T7, α2β3 (Mus musculus; Homo sapiens, UniProt P26048+P28472); experiment: two-electrode voltage clamp, Xenopus oocytes; type: cell-based; details: read-out: Taurine / EC50
T7 construct: gene Gabra2; binary GABA-A receptor, mouse alpha2 + human beta3; Xenopus oocytes
T7 sequence (P26048 29-451): T4 sequence (P26048 29-451)
T7 sequence (P28472 26-473): T4 sequence (P28472 26-473)

α2β3γ2 (δ74–79) = target: T8, α2β3γ2 (δ74–79) (Mus musculus; Homo sapiens, UniProt P22723+P26048+P28472, P22723:A117H/P22723:D113T/P22723:F116L/P22723:I112M/P22723:I114V/P22723:T119S/P22723:Y121R); experiment: cell-based; details: read-out: % of control GABA current at 1 μM
T8 construct: gene Gabra2
T8 sequence (P26048 29-451): T4 sequence (P26048 29-451)
T8 sequence (P28472 26-473): T4 sequence (P28472 26-473)
T8 sequence (P22723 39-474 I112M/D113T/I114V/F116L/A117H/T119S/Y121R): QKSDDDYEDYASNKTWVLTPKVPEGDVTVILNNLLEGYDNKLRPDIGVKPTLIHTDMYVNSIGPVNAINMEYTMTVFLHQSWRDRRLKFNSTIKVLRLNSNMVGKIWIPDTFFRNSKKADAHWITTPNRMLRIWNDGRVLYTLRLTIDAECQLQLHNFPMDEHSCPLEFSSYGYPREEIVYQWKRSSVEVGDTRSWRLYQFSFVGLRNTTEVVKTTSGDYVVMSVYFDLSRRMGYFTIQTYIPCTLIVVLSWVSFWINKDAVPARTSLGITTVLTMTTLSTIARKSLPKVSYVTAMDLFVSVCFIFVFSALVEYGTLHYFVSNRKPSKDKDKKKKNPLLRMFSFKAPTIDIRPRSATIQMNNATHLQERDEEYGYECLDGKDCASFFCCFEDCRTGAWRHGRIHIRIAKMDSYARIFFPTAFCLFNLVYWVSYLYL

T2 sequence (P15431 26-474, one chain of several): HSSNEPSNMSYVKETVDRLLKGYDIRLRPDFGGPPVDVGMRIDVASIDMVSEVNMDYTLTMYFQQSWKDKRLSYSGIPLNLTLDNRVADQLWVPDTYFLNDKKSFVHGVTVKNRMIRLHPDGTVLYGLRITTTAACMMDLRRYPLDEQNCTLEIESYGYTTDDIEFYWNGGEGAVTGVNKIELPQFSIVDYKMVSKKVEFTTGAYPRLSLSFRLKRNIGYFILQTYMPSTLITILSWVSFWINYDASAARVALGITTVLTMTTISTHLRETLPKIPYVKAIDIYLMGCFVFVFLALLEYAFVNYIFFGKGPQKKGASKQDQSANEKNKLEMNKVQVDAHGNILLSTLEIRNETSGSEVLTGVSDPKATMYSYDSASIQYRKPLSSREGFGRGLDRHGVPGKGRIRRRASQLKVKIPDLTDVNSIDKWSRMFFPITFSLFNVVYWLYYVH
T1 sequence (P22723 39-474, one chain of several): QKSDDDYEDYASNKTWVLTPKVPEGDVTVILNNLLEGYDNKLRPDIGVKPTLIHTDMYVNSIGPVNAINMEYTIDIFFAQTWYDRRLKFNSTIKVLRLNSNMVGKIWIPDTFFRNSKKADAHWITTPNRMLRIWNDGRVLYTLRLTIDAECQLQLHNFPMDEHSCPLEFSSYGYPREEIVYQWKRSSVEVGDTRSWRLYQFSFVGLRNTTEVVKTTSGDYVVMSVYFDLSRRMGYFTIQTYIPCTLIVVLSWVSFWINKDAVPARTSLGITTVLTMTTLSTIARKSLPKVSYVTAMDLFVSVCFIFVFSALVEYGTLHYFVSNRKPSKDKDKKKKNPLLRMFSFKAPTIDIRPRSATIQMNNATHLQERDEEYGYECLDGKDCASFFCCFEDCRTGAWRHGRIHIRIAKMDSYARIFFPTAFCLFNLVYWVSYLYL
T5 sequence (P15431 26-474, one chain of several): as the sequence (P15431 26-474, one chain of several) above
T6 sequence (P15431 26-474, one chain of several): as above
T3 sequence (P26048 29-451 F77I): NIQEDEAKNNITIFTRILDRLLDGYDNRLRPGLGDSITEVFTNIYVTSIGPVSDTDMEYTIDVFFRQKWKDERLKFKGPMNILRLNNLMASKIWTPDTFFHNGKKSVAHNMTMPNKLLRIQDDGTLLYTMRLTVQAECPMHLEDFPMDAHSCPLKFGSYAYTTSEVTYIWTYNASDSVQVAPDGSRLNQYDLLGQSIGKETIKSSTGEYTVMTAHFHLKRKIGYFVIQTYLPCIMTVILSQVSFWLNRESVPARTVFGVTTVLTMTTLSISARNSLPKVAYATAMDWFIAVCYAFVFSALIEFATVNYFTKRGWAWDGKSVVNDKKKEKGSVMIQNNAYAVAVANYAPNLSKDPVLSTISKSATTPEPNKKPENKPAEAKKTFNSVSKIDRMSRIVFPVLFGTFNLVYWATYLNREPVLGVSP
T3 sequence (P15431 26-474): as the sequence (P15431 26-474, one chain of several) above
T3 sequence (P22723 39-474 partner): as the sequence (P22723 39-474, one chain of several) above

Compound | EC50 (α2β3γ2) [mM] | EC50 (α2β1δ) [mM] | EC50 (α2β1γ2) [mM] | EC50 (α2β3δ) [mM] | EC50 (α2β1) [mM] | EC50 (α2β1γ2 (δ74–79)) [mM] | EC50 (α2β3) [mM] | remaining activity at 1 µM (α2β3γ2 (δ74–79)) [%]
NCCS(=O)(=O)O [taurine, 2-aminoethane sulfonic acid] | 51.2 ± 19.8 | 67.8 ± 15.9 | 76.1 ± 3.9 | 35.4 ± 2 | 81.8 ± 24.9 | 40.5 ± 6.9 | 24.5 ± 11.2 | –
Cc1ccc(-c2nc3ccc(C)cn3c2CC(=O)N(C)C)cc1 [zolpidem] | – | – | – | – | – | – | – | 97 ± 7
